In paper PMC9166630, “SAR Probing of KX2-391 Provided Analogues With Juxtaposed Activity Profile Against Major Oncogenic Kinases” (Frontiers in Oncology, 2022):
Values after ≈ are worked out from the molar mass of the structure shown. Read-outs that look alike come from different tables or passages of the source.

How the values were obtained:
[1] = Maximum kinetic aqueous solubility; type: physicochemical; settings: 2% DMSO/PBS, pH 7.4, read-out: Max. aq. Sol.
Experimental: Solubility assays were performed using Millipore MultiScreen® HTS-PFC Filter Plates designed for solubility assays (EMD Millipore, Billerica, MA). Assays were run in triplicate. The 96-well plates consist of two chambers separated by a filter. Liquid handling was performed using JANUS® Verispan and MTD workstations (Perkin Elmer, Waltham, MA). 4 µL of 4e or 4n solution (10 mM in DMSO) was added to 196 µL of phosphate buffer (45 mM potassium phosphate, 45 mM sodium acetate, 45 mM ethanolamine, pH = 7.4) in the top chamber to give a final DMSO concentration of 2% and a theoretical drug concentration of 200 µM. Plates were gently shaken for 90 min and then subjected to vacuum. Insoluble drug is captured on the filter. 160 µL of the filtrate is transferred to 96-well Griener UV Star® analysis plates (Sigma–Aldrich, St. Louis, MO) containing 40 µL of acetonitrile. The test compound concentration in the filtrate is measured by UV absorbance on a Spectromax® Plus microplate reader (Molecular Devices, Sunnyvale, CA) using Softmax Pro software v.5.4.5. Absorbances at 5 wavelengths (280, 300, 320, 340, and 360 nm) were summed to generate the UV signal. Standard curves were generated by adding 4 µL of five concentrations of test compound in DMSO to 40 µL of acetonitrile in UV Star plates followed by 156 µL of the appropriate solubility medium. Analysis and statistics were performed using GraphPad® Prism v.5.04. Data were reported as the maximum concentration observed in the filtrate.

K562 leukemia cell line = experiment: CellTiter-Blue cell viability assay, K562; type: cell-based; settings: Homo sapiens, CellTiter-Blue, 48 h, maximum tested concentration 20 µM, read-out: IC50 ± SEM, K562
Experimental: HL60, K562, MV4-11 and NB4 were purchased from CLS Cell Line Service GmbH (Eppelheim, Germany). All cell lines were cultured in RPMI-1640 medium supplemented with 10% fetal bovine serum (FBS) (Thermo Fisher Scientific) and 0.1% ciprofloxacin (2.5mg/ml; Cipla Limited; Mumbai, India), and were maintained at 37°C in the presence of 21% O2 and 5% CO2.
Cell viability was determined using the CellTiter®-Blue Cell Viability Assay kit (Promega, Madison, WI, USA). Approximately 10^4 cells were counted and plated in a 96-well plate in the presence of test compounds ranging from 0.01 to 10 or 20 µM in triplicate and were incubated for 48 h at 37°C in a humidified incubator. After the incubation period was complete, 20 µL of CellTiter®-Blue Cell Viability Assay reagent was added to each well and incubated for additional 2 h for the development of florescence. Florescence was measured at Ex/Em 540/590 on SpectraMax® i3 Multi-Mode microplate reader (Molecular Devices, LLC; San Jose, CA, USA) and plotted against drug concentration to determine the IC50 of the test compounds. The IC50 was obtained by non-linear regression model using GraphPad Prism 6.07 (GraphPad Software, Inc, USA).

[2] = tested on: human skin fibroblasts (HSF); experiment: Normal cell line assay; type: cell-based; settings: Skin fibroblast
Experimental: In addition to having a good physicochemical profile, it is important for a studied lead to differentiate between cancer cells and highly proliferating non-cancerous cells. Therefore, we assessed compounds 4e and 4n for both the in silico and in vitro physicochemical characteristics as well as for cytotoxic effect on human skin fibroblasts (HSF) cell lines.
The effect of the two compounds was evaluated for their effect on the growth and proliferation human skin fibroblasts (HSF) as an example of non-cancerous cell lines.

[3] = phosphate buffer with 2% DMSO, aqueous buffer, kinetic from dmso stock

| Compound | solubility kinetic at 90 min [1] | solubility kinetic at 90 min [1, 3] | IC50 (K562 leukemia cell line) | IC50 [2] |
| --- | --- | --- | --- | --- |
| O=C(Cc1ccc(NC(=O)c2cccc(Cl)c2)cc1)NCc1ccccc1 [Compound 4e, N-(4-(2-(benzylamino)-2-oxoethyl)phenyl)-3-chlorobenzamide] | < 2.0 µM | < 2 µM | 4.23 ± 0.2 µM | > 20 µM |
| O=C(Cc1ccc(NC(=O)c2cccc(Cl)n2)cc1)NCc1ccccc1 [Compound 4n, N-(4-(2-(benzylamino)-2-oxoethyl)phenyl)-6-chloropicolinamide] | – | 2.6 µM (≈ 0.988 µg/mL) | 2.69 ± 0.65 µM | 0.27 ± 0.03 µM |
